From US6410792B1, “Amide derivatives and methods for using the same as selective neuropeptide Y receptor antagonists” (Bayer Corporation, priority 1997, dated 2002)
pIC50: −log10 of the molar value. Where two headings read alike, the source gives them in different places.

Legend:
[1] = biological target: T1, Y2 receptor (Homo sapiens, UniProt P49146); experiment: Y2 receptor binding assay ([125I]PYY, membrane protein); details: [125I]PYY, membrane protein; read-out: hNPY2 IC50
T1 sequence (P49146 1-381): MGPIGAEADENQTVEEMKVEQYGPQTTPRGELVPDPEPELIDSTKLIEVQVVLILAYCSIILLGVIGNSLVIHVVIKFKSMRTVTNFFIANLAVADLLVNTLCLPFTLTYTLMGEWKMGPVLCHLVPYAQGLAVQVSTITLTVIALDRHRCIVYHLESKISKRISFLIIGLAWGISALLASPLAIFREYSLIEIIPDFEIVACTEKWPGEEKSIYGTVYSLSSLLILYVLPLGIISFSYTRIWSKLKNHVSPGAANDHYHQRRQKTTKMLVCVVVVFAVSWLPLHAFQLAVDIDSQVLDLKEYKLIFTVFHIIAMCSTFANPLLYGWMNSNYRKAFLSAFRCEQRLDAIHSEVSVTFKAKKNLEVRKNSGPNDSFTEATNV
Method in brief: (§1)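 Filtration binding with membrane protein and drug dilution, 2 h at room temperature with mixing, radioactivity counted by gamma or scintillation. Y2: 25 pM [125I]PYY in Krebs-Ringer bicarbonate pH 7.4 with 0.01% BSA, nonspecific by 1 μM NPY. Y4/PP1: 50 pM [125I]hPP in HEPES-buffered saline pH 7.4 with protease inhibitors and 0.3% BSA, nonspecific by 1 μM hPP.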

[2] = biological target: T2, Human NPY5 receptor (Homo sapiens, UniProt Q15761); experiment: Human NPY5 receptor binding assay ([125I]PYY, membrane protein)
T2 sequence (Q15761 1-445): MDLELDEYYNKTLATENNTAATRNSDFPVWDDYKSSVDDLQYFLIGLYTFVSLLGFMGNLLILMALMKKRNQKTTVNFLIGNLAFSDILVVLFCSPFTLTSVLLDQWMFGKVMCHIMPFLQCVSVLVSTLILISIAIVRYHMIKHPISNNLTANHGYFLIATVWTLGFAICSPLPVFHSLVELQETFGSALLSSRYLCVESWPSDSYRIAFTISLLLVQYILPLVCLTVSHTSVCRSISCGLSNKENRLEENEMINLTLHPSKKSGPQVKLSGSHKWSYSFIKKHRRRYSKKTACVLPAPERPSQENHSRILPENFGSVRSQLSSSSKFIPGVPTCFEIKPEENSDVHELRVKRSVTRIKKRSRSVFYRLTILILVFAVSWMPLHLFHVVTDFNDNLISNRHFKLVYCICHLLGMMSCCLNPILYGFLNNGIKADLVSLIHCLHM
Method in brief: (§2)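 Radioligand displacement: 75-100 pM [125I]PYY (porcine), membranes, drug dilution; 2 h, RT, mixing; 25 mM Tris pH 7.4 with 0.1% BSA, 0.5 mg/ml bacitracin. NSB 1 μM PYY. Filtration on PEI-treated GF/C, ice-cold buffer wash, gamma or scintillation counting.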

[3] = biological target: human Y4/PP1 receptor (Homo sapiens, UniProt P50391); experiment: Human Y4/PP1 receptor binding assay ([125I]human PP, membrane protein)
Chain of human Y4/PP1 receptor (P50391 whole entry): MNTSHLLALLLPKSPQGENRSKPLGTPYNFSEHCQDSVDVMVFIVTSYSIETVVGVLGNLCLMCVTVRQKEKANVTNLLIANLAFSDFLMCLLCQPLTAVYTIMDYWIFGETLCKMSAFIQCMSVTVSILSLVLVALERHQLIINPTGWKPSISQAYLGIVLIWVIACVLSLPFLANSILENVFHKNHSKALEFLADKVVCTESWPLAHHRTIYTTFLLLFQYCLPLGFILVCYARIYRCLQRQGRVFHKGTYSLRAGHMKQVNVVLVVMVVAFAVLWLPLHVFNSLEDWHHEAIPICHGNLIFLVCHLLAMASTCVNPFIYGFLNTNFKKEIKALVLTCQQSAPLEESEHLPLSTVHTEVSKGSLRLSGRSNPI
Method in brief: as §1

[4] = biological target: T3, Rat NPY5 receptor (Rattus norvegicus, UniProt Q63634); experiment: Rat NPY5 cyclase assay (in vitro functional assay, forskolin-stimulated adenylate cyclase, cAMP); format: cell-based; details: 20 min; 10 μM; percentage of forskolin-stimulated adenylate cyclase; read-out: rNPY5 % FSAC (10 μM)
T3 sequence (Q63634 1-445): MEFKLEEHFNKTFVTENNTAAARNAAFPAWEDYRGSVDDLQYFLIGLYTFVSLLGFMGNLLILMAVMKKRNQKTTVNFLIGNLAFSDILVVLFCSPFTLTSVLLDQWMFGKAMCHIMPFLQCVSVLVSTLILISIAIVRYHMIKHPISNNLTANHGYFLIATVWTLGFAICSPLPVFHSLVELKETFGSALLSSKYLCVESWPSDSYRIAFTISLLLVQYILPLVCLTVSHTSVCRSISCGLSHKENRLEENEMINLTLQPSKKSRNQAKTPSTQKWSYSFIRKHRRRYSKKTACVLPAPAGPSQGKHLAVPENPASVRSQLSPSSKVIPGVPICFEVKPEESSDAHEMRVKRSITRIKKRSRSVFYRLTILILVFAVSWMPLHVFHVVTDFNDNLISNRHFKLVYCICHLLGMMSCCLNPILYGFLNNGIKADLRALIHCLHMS
Method in brief: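 Cells stably expressing rat NPY5 receptor, in serum-free DMEM with 10 mM HEPES pH 7.4 and 1 mM IBMX, received […] plus compound for 20 min at 37 °C. Reactions were stopped by boiling. cAMP was quantified by radioimmunoassay and expressed as % of forskolin-stimulated adenylate cyclase.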

[5] = biological target: T4, Human NPY1 receptor (Homo sapiens, UniProt P25929); experiment: Human NPY1 receptor binding assay ([125I]PYY, SK-N-MC cells)
T4 construct: host or cells: SK-N-MC cells
T4 sequence (P25929 1-384): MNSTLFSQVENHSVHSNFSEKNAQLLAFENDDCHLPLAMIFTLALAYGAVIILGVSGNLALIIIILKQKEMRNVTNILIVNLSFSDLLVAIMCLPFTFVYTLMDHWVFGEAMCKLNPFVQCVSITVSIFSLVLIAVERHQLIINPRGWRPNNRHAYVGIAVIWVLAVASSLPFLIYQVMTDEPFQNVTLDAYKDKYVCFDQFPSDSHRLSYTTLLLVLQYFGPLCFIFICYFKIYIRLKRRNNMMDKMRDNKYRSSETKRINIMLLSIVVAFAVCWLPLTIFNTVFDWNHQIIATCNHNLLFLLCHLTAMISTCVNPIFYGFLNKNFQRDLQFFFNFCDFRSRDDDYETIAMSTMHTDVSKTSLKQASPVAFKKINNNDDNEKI
Method in brief: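 Whole-cell competition with ~50 pM [125I]PYY on SK-N-MC monolayers, 3 h at room temperature after 30 min preincubation in HEPES-buffered (pH 7.3) serum-free DMEM containing protease inhibitors. Gamma counting of cell lysates; 1 μM NPY gave nonspecific binding.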

[6] = biological target: T3, Rat NPY5 receptor; experiment: Rat NPY5 receptor binding assay ([125I]PYY, membrane protein)
Method in brief: as §2

[7] = [125I]PYY, read-out: hNPY5 IC50
[8] = [125I]human PP, membrane protein, read-out: hNPY4 IC50
[9] = [125I]PYY, SK-N-MC cells, read-out: hNPYI IC50
[10] = [125I]PYY, read-out: rNPY5 IC50

## CCCCCc1ccc(NC(=O)CN2CCC(n3c(=O)[nH]c4ccccc43)CC2)cc1 [Compound 255, 2-[4-(2-Oxo-2,3-dihydro-benzoimidazol-1-yl)-piperidin-1-yl]-N-(4-pentyl-phenyl)-acetamide]
[1]
  pIC50: < 5.30
other
  melting point: 127 to 128 °C
[2]; [7]
  pIC50: 7.13
[3]; [8]
  pIC50: < 5.30
[4]
  activity at 10 µM: 95%
[5]; [9]
  pIC50: < 5.30

## O=C(CN1CCC(n2c(=O)[nH]c3ccccc32)CC1)Nc1ccc(-c2ccccc2)cc1 [Compound 275, N-Biphenyl-4-yl-2-[4-(2-oxo-2,3-dihydro-benzoimidazol-1-yl)-piperidin-1-yl]-acetamide]
[1]
  pIC50: < 5.30
other
  melting point: 180 to 181 °C
[2]; [7]
  pIC50: 7.38
[3]; [8]
  pIC50: < 5.30
[4]
  activity at 10 µM: 103%
[5]; [9]
  pIC50: < 5.30
[6]; [10]
  pIC50: 7.72

## CCCc1ccc(NC(=O)CN2CCC(n3c(=O)[nH]c4ccccc43)CC2)cc1 [Compound 253, 2-[4-(2-Oxo-2,3-dihydro-benzoimidazol-1-yl)-piperidin-1-yl]-N-(4-propyl-phenyl)-acetamide]
[1]
  pIC50: < 5.30
other
  melting point: 116 to 117 °C
[2]; [7]
  pIC50: 7.20
[3]; [8]
  pIC50: < 5.30
[4]
  activity at 10 µM: 99%
[5]; [9]
  pIC50: < 5.30
[6]; [10]
  pIC50: 7.30

## CCCCCCc1ccc(NC(=O)CN2CCC(n3c(=O)[nH]c4ccccc43)CC2)cc1 [Compound 256, N-(4-Hexyl-phenyl)-2-[4-(2-oxo-2,3-dihydro-benzoimidazol-1-yl)-piperidin-1-yl]-acetamide]
[1]
  pIC50: < 5.30
other
  melting point: 128 to 129 °C
[2]; [7]
  pIC50: 6.92
[3]; [8]
  pIC50: < 5.30
[4]
  activity at 10 µM: 92%
[5]; [9]
  pIC50: < 5.30

## O=C(CN1CCC(n2c(=O)[nH]c3ccccc32)CC1)Nc1ccc(-c2ccc(F)cc2)cc1 [Compound 259, N-(4′-Fluoro-biphenyl-4-yl)-2-[4-(2-oxo-2,3-dihydro-benzoimidazol-1-yl)-piperidin-1-yl]-acetamide]
[1]
  pIC50: < 5.30
other
  melting point: 228 to 229 °C
[2]; [7]
  pIC50: 6.82
[3]; [8]
  pIC50: < 5.30
[4]
  activity at 10 µM: 101%
[5]; [9]
  pIC50: < 5.30
[6]; [10]
  pIC50: 7.06

## CCCCc1ccc(NC(=O)CN2CCC(n3c(=O)[nH]c4ccccc43)CC2)cc1 [Compound 254, N-(4-Butyl-phenyl)-2-[4-(2-oxo-2,3-dihydro-benzoimidazol-1-yl)-piperidin-1-yl]-acetamide]
[1]
  pIC50: < 5.30
other
  melting point: 130 to 131 °C
[2]; [7]
  pIC50: 7.37
[3]; [8]
  pIC50: < 5.30
[4]
  activity at 10 µM: 103%
[5]; [9]
  pIC50: < 5.30

## O=C(CN1CCC(n2c(=O)[nH]c3ccccc32)CC1)Nc1ccc(C2CCCCC2)cc1 [Compound 251, N-(4-Cyclohexyl-phenyl)-2-[4-(2-oxo-2,3-dihydrobenzoimidazol-1-yl)-piperidin-1-yl]-acetamide]
[1]
  pIC50: < 5.30
other
  melting point: 130 to 132 °C
[2]; [7]
  pIC50: 8.40
[3]; [8]
  pIC50: < 5.30
[4]
  activity at 10 µM: 92%
[5]; [9]
  pIC50: < 5.30

## Cl.N#CC(c1ccccc1)C1CCN(CC(=O)Nc2ccc(C3CCCCC3)cc2)CC1 (stereo not drawn) [Compound 300, 2-[4-(Cyano-phenyl-methyl)-piperidin-1-yl]-N-(4-cyclohexyl-phenyl)-acetamide; hydrochloride]
[1]
  pIC50: < 5.30
other
  melting point: 150 °C
[2]; [7]
  pIC50: 7.89
[3]; [8]
  pIC50: < 5.30
[4]
  activity at 10 µM: 90%
[5]; [9]
  pIC50: < 5.30
[6]; [10]
  pIC50: 7.89

## CCC(=O)C1(c2ccccc2)CCN(CC(=O)Nc2ccc(C3CCCCC3)cc2)CC1.Cl [Compound 303, N-(4-Cyclohexyl-phenyl)-2-(4-phenyl-4-propionyl-piperidin-1-yl)-acetamide; hydrochloride]
[1]
  pIC50: < 5.30
other
  melting point: 252 °C
[2]; [7]
  pIC50: 8.40
[3]
  pIC50: < 5.30
[4]
  activity at 10 µM: 93%
[5]
  pIC50: < 5.30
[6]; rNPY5 IC50, [125I]PYY
  pIC50: 8.22

## CC(=O)NCC1(c2ccccc2)CCN(CC(=O)Nc2ccc(C3CCCCC3)cc2)CC1.O=C(O)C(=O)O [Compound 301, 2-[4-(Acetylamino-methyl)-4-phenyl-piperidin-1-yl]-N-(4-cyclohexyl-phenyl)-acetamide; compound with oxalic acid]
[1]
  pIC50: < 5.30
other
  melting point: 146 °C
[2]; hNPY5 IC50, [125I]PYY
  pIC50: 7.49
[3]; [8]
  pIC50: < 5.30
[4]
  activity at 10 µM: 101%
[5]; [9]
  pIC50: < 5.30
[6]; rNPY5 IC50, [125I]PYY
  pIC50: 7.49

## CC(C)c1ccc(NC(=O)CN2CCC(n3c(=O)[nH]c4ccccc43)CC2)cc1 [Compound 257, N-(4-Isopropyl-phenyl)-2-[4-(2-oxo-2,3-dihydro-benzoimidazol-1-yl)-piperidin-1-yl]-acetamide]
[1]
  pIC50: < 5.30
other
  melting point: 133 to 134 °C
[2]; [7]
  pIC50: 6.96
[3]; [8]
  pIC50: < 5.30
[4]
  activity at 10 µM: 88%
[5]; [9]
  pIC50: < 5.30
